Experimental data taken from patent publication US11185073B2, “Microbiocidal quinoline (thio)carboxamide derivatives” (SYNGENTA PARTICIPATIONS AG, priority 2017, dated 2021).

How the values were obtained:
Fusarium culmorum [1] = assay: microbe, parasite or virus in culture; format: cell-based; conditions: 72 h, read-out: control of Fusarium culmorum
[2] = system: Gibberella zeae (Fusarium graminearum); assay: whole plant or invertebrate; format: in vivo; conditions: in Triticum aestivum, read-out: control of Gibberella zeae
[3] = system: Glomerella lagenarium (Colletotrichum lagenarium); assay: Glomerella lagenarium (Colletotrichum lagenarium) / liquid culture (anthracnose); format: cell-based; conditions: Colletotrichum orbiculare, growth inhibition photometrically 3-4 days after application, compared to untreated control
Fusarium culmorum [4] = assay: whole plant or invertebrate; format: in vivo; conditions: in Triticum aestivum, read-out: control of Fusarium culmorum
[5] = system: Botryotinia fuckeliana (Botrytis cinerea); assay: Botryotinia fuckeliana (Botrytis cinerea) / liquid culture (gray mould); format: cell-based; conditions: 72 h, growth inhibition photometrically 3-4 days after application, compared to untreated control
[6] = system: Monographella nivalis (Microdochium nivale); assay: Monographella nivalis (Microdochium nivale) / liquid culture (foot rot cereals); format: cell-based; conditions: 96 h, growth inhibition photometrically 4-5 days after application, compared to untreated control
[7] = system: Magnaporthe grisea (Pyricularia oryzae); assay: microbe, parasite or virus in culture; format: cell-based; conditions: 72 h, read-out: control of Magnaporthe grisea

CC(COC1CCC1)(CC(F)(F)F)NC(=O)c1cnc2c(F)cccc2c1 (stereo in doubt) [E.014, N-[(1S)-1-(cyclo-butoxymethyl)-3,3,3-trifluoro-1-methyl-propyl]-8-fluoro-quinoline-3-carboxamide]
≥ 80%: inhibition of growth at 20 ppm (Fusarium culmorum [1]) | pest or weed control at 200 ppm [2] | inhibition of growth at 20 ppm [3] | pest or weed control at 200 ppm (Fusarium culmorum [4]) | inhibition of growth at 20 ppm [5]

CC(COC1CCCCC1)(CC(F)(F)F)NC(=O)c1cnc2c(F)cccc2c1 (stereo in doubt) [E.017, N-[(1S)-1-(cyclo-hexoxymethyl)-3,3,3-trifluoro-1-methyl-propyl]-8-fluoro-quinoline-3-carboxamide]
≥ 80%: pest or weed control at 200 ppm [2]

CC(C)(C)CC(C)(COCC1CC1)NC(=O)c1cnc2c(F)cccc2c1 (stereo not drawn) [E.006, N-[1-(cyclo-propylmethoxy-methyl)-1,3,3-trimethylbutyl]-8-fluoro-quinoline-3-carboxamide]
≥ 80%: inhibition of growth at 20 ppm [6] | inhibition of growth at 20 ppm (Fusarium culmorum [1]) | inhibition of growth at 20 ppm [3] | pest or weed control at 200 ppm (Fusarium culmorum [4]) | inhibition of growth at 20 ppm [5] | inhibition of growth at 20 ppm [7]

Cc1c(C(=O)NC(C)(COC2CCC2)CC(F)(F)F)cnc2c(F)cccc12 (stereo not drawn) [E.007, N-[1-(cyclo-butoxymethyl)-3,3,3-trifluoro-1-methyl-propyl]-8-fluoro-4-methyl-quinoline-3-carboxamide]
≥ 80%: inhibition of growth at 20 ppm [6] | inhibition of growth at 20 ppm (Fusarium culmorum [1]) | pest or weed control at 200 ppm [2] | inhibition of growth at 20 ppm [3] | pest or weed control at 200 ppm (Fusarium culmorum [4]) | inhibition of growth at 20 ppm [5] | inhibition of growth at 20 ppm [7]

CC(COC1CCC1)(CC(F)(F)F)NC(=O)c1cnc2c(F)c(F)ccc2c1 (stereo not drawn) [E.008, N-[1-(cyclo-butoxymethyl)-3,3,3-trifluoro-1-methyl-propyl]-7,8-difluoro-quinoline-3-carboxamide]
≥ 80%: inhibition of growth at 20 ppm [6] | inhibition of growth at 20 ppm (Fusarium culmorum [1]) | pest or weed control at 200 ppm [2] | inhibition of growth at 20 ppm [3] | pest or weed control at 200 ppm (Fusarium culmorum [4]) | inhibition of growth at 20 ppm [5] | inhibition of growth at 20 ppm [7]

Cc1nc2c(F)cccc2cc1C(=O)NC(C)(COC1CCC1)CC(F)(F)F (stereo not drawn) [E.009, N-[1-(cyclo-butoxymethyl)-3,3,3-trifluoro-1-methyl-propyl]-8-fluoro-2-methyl-qiuinoline-3-carboxamide]
≥ 80%: inhibition of growth at 20 ppm (Fusarium culmorum [1]) | inhibition of growth at 20 ppm [3] | inhibition of growth at 20 ppm [5] | inhibition of growth at 20 ppm [7]

CC(COC1(C)CCCC1)(CC(F)(F)F)NC(=O)c1cnc2c(F)cccc2c1 (stereo not drawn) [E.010]
≥ 80%: inhibition of growth at 20 ppm [6] | inhibition of growth at 20 ppm (Fusarium culmorum [1]) | pest or weed control at 200 ppm [2] | inhibition of growth at 20 ppm [3] | pest or weed control at 200 ppm (Fusarium culmorum [4]) | inhibition of growth at 20 ppm [5]

Cc1cccc2cc(C(=O)NC(C)(COC3CCC3)CC(F)(F)F)cnc12 (stereo not drawn) [E.011]
≥ 80%: inhibition of growth at 20 ppm [6] | inhibition of growth at 20 ppm (Fusarium culmorum [1]) | inhibition of growth at 20 ppm [3] | pest or weed control at 200 ppm (Fusarium culmorum [4]) | inhibition of growth at 20 ppm [5] | inhibition of growth at 20 ppm [7]

C[C@@](COC1CCC1)(CC(F)(F)F)NC(=O)c1cnc2c(F)cccc2c1 [E.013, N-[(1S)-1-(cyclo-butoxymethyl)-3,3,3-trifluoro-1-methyl-propyl]-8-fluoro-quinoline-3-carboxamide]
≥ 80%: inhibition of growth at 20 ppm [6] | inhibition of growth at 20 ppm (Fusarium culmorum [1]) | inhibition of growth at 20 ppm [3] | pest or weed control at 200 ppm (Fusarium culmorum [4]) | inhibition of growth at 20 ppm [5]

CC(COC1(C)CCCCC1)(CC(F)(F)F)NC(=O)c1cnc2c(F)cccc2c1 (stereo not drawn) [E.015, 8-fluoro-N-[3,3,3-trifluoro-1-methyl-1-[(1-methylcyclo-hexoxy)methyl]-propyl]quinoline-3-carboxamide]
≥ 80%: inhibition of growth at 20 ppm (Fusarium culmorum [1]) | inhibition of growth at 20 ppm [3] | inhibition of growth at 20 ppm [5] | inhibition of growth at 20 ppm [7]

CC1(CC(C)(COCc2ccccc2)NC(=O)c2cnc3c(F)cccc3c2)CC1 (stereo not drawn) [E.018, N-[1-(benzyloxy-methyl)-1-methyl-2-(1-methylcyclo-propyl)ethyl]-8-fluoro-quinoline-3-carboxamide]
≥ 80%: inhibition of growth at 20 ppm [6] | inhibition of growth at 20 ppm (Fusarium culmorum [1]) | inhibition of growth at 20 ppm [5] | inhibition of growth at 20 ppm [7]

CC(COC1CCC1)(CC(F)(F)F)NC(=O)c1cnc2c(F)cccc2c1 (stereo not drawn) [E.021, N-[1-(cyclobutoxy-methyl)-3,3,3-trifluoro-1-methyl-propyl]-8-fluoro-quinoline-3-carboxamide]
≥ 80%: inhibition of growth at 20 ppm (Fusarium culmorum [1]) | inhibition of growth at 20 ppm [3] | inhibition of growth at 20 ppm [5] | inhibition of growth at 20 ppm [7]

CCC(CC)OCC(C)(CC(C)C)NC(=O)c1cnc2c(F)cccc2c1 (stereo not drawn) [E.022, N-[1-(1-ethyl-propoxymethyl)-1,3-dimethyl-butyl]-8-fluoro-quinoline-3-carboxamide]
≥ 80%: inhibition of growth at 20 ppm [6] | inhibition of growth at 20 ppm (Fusarium culmorum [1]) | inhibition of growth at 20 ppm [3] | pest or weed control at 200 ppm (Fusarium culmorum [4]) | inhibition of growth at 20 ppm [5] | inhibition of growth at 20 ppm [7]

CC(C)CC(C)(COC(C)C)NC(=O)c1cnc2c(F)cccc2c1 (stereo not drawn) [E.024, 8-fluoro-N-[1-(iso-propoxymethyl)-1,3-dimethyl-butyl]quinoline-3-carboxamide]
≥ 80%: inhibition of growth at 20 ppm (Fusarium culmorum [1]) | pest or weed control at 200 ppm [2] | inhibition of growth at 20 ppm [3] | pest or weed control at 200 ppm (Fusarium culmorum [4]) | inhibition of growth at 20 ppm [5] | inhibition of growth at 20 ppm [7]

CC(C)CC(C)(COc1ccccc1)NC(=O)c1cnc2c(F)cccc2c1 (stereo not drawn) [E.028, N-[1,3-dimethyl-1-(phenoxymethyl)-butyl]-8-fluoro-quinoline-3-carboxamide]
≥ 80%: inhibition of growth at 20 ppm [6] | inhibition of growth at 20 ppm (Fusarium culmorum [1]) | inhibition of growth at 20 ppm [3] | pest or weed control at 200 ppm (Fusarium culmorum [4]) | inhibition of growth at 20 ppm [5]

CC(C)CC(C)(COC1CCCCC1)NC(=O)c1cnc2c(F)cccc2c1 (stereo not drawn) [E.029, N-[1-(cyclohexoxy-methyl)-1,3-dimethyl-butyl]-8-fluoro-quinoline-3-carboxamide]
≥ 80%: inhibition of growth at 20 ppm [6] | inhibition of growth at 20 ppm (Fusarium culmorum [1]) | inhibition of growth at 20 ppm [3] | pest or weed control at 200 ppm (Fusarium culmorum [4]) | inhibition of growth at 20 ppm [5] | inhibition of growth at 20 ppm [7]

CC(C)CC(C)(COC1CCCC1)NC(=O)c1cnc2c(F)cccc2c1 (stereo not drawn) [E.031, N-[1-(cyclopentoxy-methyl)-1,3-dimethyl-butyl]-8-fluoro-quinoline-3-carboxamide]
≥ 80%: inhibition of growth at 20 ppm [6] | inhibition of growth at 20 ppm (Fusarium culmorum [1]) | inhibition of growth at 20 ppm [3] | pest or weed control at 200 ppm (Fusarium culmorum [4]) | inhibition of growth at 20 ppm [5] | inhibition of growth at 20 ppm [7]

CCCCCCCCC(C)(COC)NC(=O)c1cnc2c(F)cccc2c1 (stereo not drawn) [E.033, 8-fluoro-N-[1-(methoxymethyl)-1-methyl-nonyl]-quinoline-3-carboxamide]
≥ 80%: inhibition of growth at 20 ppm [6] | inhibition of growth at 20 ppm (Fusarium culmorum [1]) | pest or weed control at 200 ppm [2] | inhibition of growth at 20 ppm [3] | inhibition of growth at 20 ppm [5]
